Results: the supplement of paper PMC10307832

Key:
Assay in all cases: relative viability (nuclei count vs DMSO), 5 days (fraction); higher = more cells survive
Erlotinib + Bortezomib = compound: C#Cc1cccc(Nc2ncnc3cc(OCCOC)c(OCCOC)cc23)c1 [Erlotinib] + CC(C)C[C@H](NC(=O)[C@H](Cc1ccccc1)NC(=O)c1cnccn1)B(O)O [Bortezomib] (partner 0.002 µM)
Method in brief: (§1)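 Values are medians from duplicate plates. Each reflects relative viability, defined as the nuclei count of treated wells over that of vehicle wells. Lung cancer cell lines in 1536-well plates were pin-tool dosed one day after seeding with one drug alone or with a fixed anchor-drug dose plus five library-drug doses (not always all listed) in √10 steps, then fixed, stained and imaged at 4× after 5 days.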

Erlotinib + Crizotinib = compound: C#Cc1cccc(Nc2ncnc3cc(OCCOC)c(OCCOC)cc23)c1 [Erlotinib] + C[C@@H](Oc1cc(-c2cnn(C3CCNCC3)c2)cnc1N)c1c(Cl)ccc(F)c1Cl [Crizotinib] (partner 1 µM)
Method in brief: as §1

Erlotinib + Decitabine = compound: C#Cc1cccc(Nc2ncnc3cc(OCCOC)c(OCCOC)cc23)c1 [Erlotinib] + Nc1ncn([C@H]2C[C@H](O)[C@@H](CO)O2)c(=O)n1 [Decitabine] (partner 2 µM)
Method in brief: as §1

AT9283 + OSI-027 = compound: O=C(Nc1c[nH]nc1-c1nc2ccc(CN3CCOCC3)cc2[nH]1)NC1CC1 [AT9283] + COc1cccc2cc(-c3nc([C@H]4CC[C@H](C(=O)O)CC4)n4ncnc(N)c34)[nH]c12 [OSI-027] (partner 0.5 µM)
Method in brief: as §1

AT9283 + Dasatinib = compound: O=C(Nc1c[nH]nc1-c1nc2ccc(CN3CCOCC3)cc2[nH]1)NC1CC1 [AT9283] + Cc1nc(Nc2ncc(C(=O)Nc3c(C)cccc3Cl)s2)cc(N2CCN(CCO)CC2)n1 [Dasatinib] (partner 0.075 µM)
Method in brief: as §1

Cell Line	relative viability (Erlotinib + Bortezomib; first compound 0.02 µM)	relative viability (Erlotinib + Bortezomib; first compound 0.2 µM)	relative viability (Erlotinib + Bortezomib; first compound 0.6325 µM)	relative viability (Erlotinib + Bortezomib; first compound 2 µM)	relative viability (Erlotinib + Crizotinib; first compound 0.02 µM)	relative viability (Erlotinib + Crizotinib; first compound 0.2 µM)	relative viability (Erlotinib + Crizotinib; first compound 0.6325 µM)	relative viability (Erlotinib + Crizotinib; first compound 2 µM)	relative viability (Erlotinib + Decitabine; first compound 0.02 µM)	relative viability (Erlotinib + Decitabine; first compound 0.2 µM)	relative viability (Erlotinib + Decitabine; first compound 0.6325 µM)	relative viability (Erlotinib + Decitabine; first compound 2 µM)	relative viability (AT9283 + OSI-027; first compound 0.003 µM)	relative viability (AT9283 + OSI-027; first compound 0.03 µM)	relative viability (AT9283 + OSI-027; first compound 0.09487 µM)	relative viability (AT9283 + OSI-027; first compound 0.3 µM)	relative viability (AT9283 + Dasatinib; first compound 0.003 µM)	relative viability (AT9283 + Dasatinib; first compound 0.03 µM)	relative viability (AT9283 + Dasatinib; first compound 0.09487 µM)	relative viability (AT9283 + Dasatinib; first compound 0.3 µM)
NCI-H1355	1.14	1.1	1.24	0.992	1.1	0.999	0.944	0.789	0.394	0.315	0.322	0.341	0.399	0.436	0.276	0.221	0.634	0.727	0.296	0.273
NCI-H1437	0.482	0.499	0.57	0.393	1.01	1.02	1.12	0.883	0.575	0.57	0.598	0.514	0.933	0.848	0.669	0.206	0.342	0.379	0.224	0.114
NCI-H1650	0.204	0.204	0.176	0.178	0.85	0.721	0.924	0.643	0.331	0.365	0.509	0.421	0.838	0.575	0.357	0.227	0.347	0.301	0.216	0.171
NCI-H1651	0.912	0.909	0.918	0.882	0.876	0.801	0.92	0.786	0.623	0.438	0.644	0.524	0.753	0.714	0.568	0.334	0.442	0.368	0.319	0.212
NCI-H1666	0.864	0.74	0.766	0.615	1.02	0.856	0.66	0.428	–	–	0.557	0.458	0.782	0.811	0.636	0.483	0.866	0.682	0.574	0.431
NCI-H1734	1.1	0.955	1.17	0.961	0.644	0.653	0.753	0.654	0.488	0.485	0.463	0.509	0.634	0.331	0.237	0.201	0.332	0.301	0.187	0.158
NCI-H1755	1.06	1.01	0.957	0.9	0.889	0.888	0.904	–	0.725	0.75	0.741	0.764	0.697	0.72	0.396	0.537	0.451	0.437	0.265	0.272
NCI-H1792	0.897	0.958	1.18	0.783	1	0.931	1.06	0.801	0.634	0.482	0.505	0.477	0.727	0.868	0.742	0.404	0.894	0.886	0.748	0.538
NCI-H1915	0.982	0.989	1.05	0.992	0.948	0.832	0.919	0.86	0.288	0.266	0.272	0.269	0.619	0.619	0.239	0.196	0.276	0.289	0.141	0.141
NCI-H1975	0.381	0.355	0.451	0.303	0.947	0.96	1.04	0.694	0.431	0.402	0.409	0.332	0.726	0.706	0.671	0.344	0.401	0.461	0.389	0.237
NCI-H1993	1.01	0.698	0.809	0.739	0.816	0.646	0.854	0.713	0.602	0.483	0.553	0.531	0.545	0.528	0.487	0.486	0.618	0.557	0.462	0.448
NCI-H2009	1.06	1.03	1.19	1.01	1.02	1.07	1.15	–	0.333	0.347	0.35	0.374	0.652	0.511	0.182	0.101	0.308	0.212	0.124	0.099
NCI-H2023	0.949	0.816	1.14	0.789	0.575	0.44	0.469	0.294	0.247	0.222	0.251	0.24	0.389	0.456	0.148	0.104	0.526	0.42	0.182	0.101
NCI-H2085	1.04	0.979	0.889	0.766	0.794	0.835	0.739	0.57	0.573	0.585	0.531	0.496	0.896	0.731	0.553	0.321	0.231	0.238	0.224	0.2
NCI-H2087	1	1.12	0.804	0.768	0.882	1.06	0.871	0.849	0.286	0.238	0.282	0.208	0.637	0.392	0.14	0.134	0.765	0.309	0.122	0.0986
NCI-H2126	1.12	1.11	0.964	0.769	1.04	0.892	0.776	0.662	0.569	0.537	0.437	0.493	0.635	0.808	0.75	0.389	0.587	0.602	0.439	0.271
NCI-H2347	0.759	0.873	1.26	0.659	0.678	0.595	0.723	0.646	0.633	0.642	0.589	0.576	0.444	0.427	0.404	0.296	0.342	0.313	0.26	0.223
NCI-H2405	1.12	1.03	0.998	0.938	0.957	0.838	0.958	0.717	–	0.706	0.647	0.629	0.685	0.654	0.533	0.262	0.177	0.185	0.132	0.107
NCI-H3122	1.01	1.03	1.05	1.05	0.287	0.262	0.258	0.241	0.533	0.402	0.443	0.386	0.94	0.645	0.201	0.115	0.763	0.664	0.111	0.0513
PC-3 [JPC-3]	0.796	0.455	0.401	0.324	0.887	0.409	0.324	0.377	0.842	0.446	0.429	0.431	0.741	0.791	0.591	0.517	1.06	1.02	0.876	0.718
PC-14	0.67	0.259	0.21	0.249	0.651	0.278	0.23	0.224	0.194	0.142	0.151	0.145	0.878	0.745	0.0842	0.08	0.221	0.146	0.0272	0.016
RERF-LC-KJ	1.04	1.01	0.854	0.762	0.85	0.837	0.781	0.645	0.638	0.62	0.649	0.582	0.609	0.544	0.308	0.279	0.864	0.391	0.212	0.188
SK-LU-1	1.07	1.55	1.61	0.984	1.26	0.914	0.834	0.727	0.661	0.707	0.634	0.592	0.366	0.276	0.22	0.165	0.217	0.124	0.0747	0.0888
SW 1573	1.08	1.02	0.934	0.879	0.88	0.814	0.864	0.646	–	0.511	0.495	0.576	0.534	0.352	0.146	0.134	0.496	0.115	0.0919	0.0873
UMC-11	0.934	0.837	0.738	0.586	0.644	0.62	0.84	0.585	0.652	0.597	0.636	0.567	0.559	0.17	0.152	0.167	0.453	0.128	0.139	0.154
